Assay results: PubChem BioAssay (NCI)
Where “and” joins values, the source holds several entries; their conditions need not be identical. Identical values can stand only once.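 Assay format: 96-well plates, 48-hour exposure. GI50 is the concentration that inhibits growth by half. TGI marks complete inhibition of growth.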

Legend:
Test in all cases: DTP human tumour cell line panel, 48 h
SN12C renal = tested on: SN12C renal
HL-60(TB) leukemia = tested on: HL-60(TB) leukemia
OVCAR-4 ovarian = tested on: OVCAR-4 ovarian
KM12 colon = tested on: KM12 colon
SF-268 CNS = tested on: SF-268 CNS
OVCAR-3 ovarian = tested on: OVCAR-3 ovarian
RPMI-8226 leukemia = tested on: RPMI-8226 leukemia
SK-OV-3 ovarian = tested on: SK-OV-3 ovarian
RXF 393 renal = tested on: RXF 393 renal
K-562 leukemia = tested on: K-562 leukemia

| SMILES | GI50 (SN12C renal) [µM] | TGI (SN12C renal) [µM] | GI50 (HL-60(TB) leukemia) [µM] | TGI (HL-60(TB) leukemia) [µM] | GI50 (OVCAR-4 ovarian) [µM] | TGI (OVCAR-4 ovarian) | GI50 (KM12 colon) [µM] | TGI (KM12 colon) [µM] | GI50 (SF-268 CNS) [µM] | TGI (SF-268 CNS) [µM] | GI50 (OVCAR-3 ovarian) [µM] | TGI (OVCAR-3 ovarian) | GI50 (RPMI-8226 leukemia) [µM] | TGI (RPMI-8226 leukemia) [µM] | GI50 (SK-OV-3 ovarian) [µM] | TGI (SK-OV-3 ovarian) | GI50 (RXF 393 renal) [µM] | TGI (RXF 393 renal) | TGI (K-562 leukemia) [µM] | GI50 (K-562 leukemia) [µM] |
| --- | --- | --- | --- | --- | --- | --- | --- | --- | --- | --- | --- | --- | --- | --- | --- | --- | --- | --- | --- | --- |
| Oc1ccccc1-c1nc2c3ccccc3c3ccccc3c2[nH]1 | 10.7 | 22.6 | 3.66 | 14.9 | 12.7 | 25.3 µM | 4.32 | 14.1 | 10.6 | 22.6 | 11.1 | 23.1 µM | 1.93 | 14.4 | 8.68 | 23.7 µM | 6.23 | 18.8 µM |  |  |
| CCOC(=O)C(=O)Nc1c(C(C)C)cccc1C(C)C |  | > 100 |  | > 100 |  | > 100 µM |  | > 100 |  | > 100 |  | > 100 µM |  |  |  | > 100 µM |  | > 100 µM |  |  |
| CCOC(=O)c1cc(/C=C/C(C)=C/C(=O)OC)n(C)c1C |  | > 100 |  | > 100 |  | > 100 µM |  | > 100 |  | > 100 |  | > 100 µM |  | > 100 |  | > 100 µM |  |  | > 100 |  |
| Cc1c(Cl)cccc1NC(=O)CC1C(=O)Nc2ccccc2S1(=O)=O (stereo unspecified) |  | 31.9 |  | 16 |  | 67.2 µM |  |  |  | 38.2 |  | 31.7 µM |  | 32.3 |  |  |  | 28.9 µM | 50.1 |  |
| C1=CC=C2NCCOCCNC3=CC=CC=CC3=NCCOCCN=C2C=C1 |  | > 100 |  | 70.5 |  | > 100 µM |  | > 100 |  | > 100 |  | > 100 µM |  | > 100 |  | > 100 µM |  |  | > 100 |  |
| C[C@]12CC[C@@H]3c4ccc(O)cc4C(O)C[C@H]3[C@@H]1CCC2=O (stereo partly specified) | > 100 | > 100 | > 100 | > 100 | 61.1 | > 100 µM | > 100 | > 100 | > 100 | > 100 | > 100 | > 100 µM | 60.6 | > 100 | > 100 | > 100 µM |  |  | > 100 | > 100 |
| C[N+]1(C)C/C(=C\c2ccncc2)C(=O)/C(=C/c2ccncc2)C1 |  | > 100 |  | 79.5 |  | > 100 µM |  | > 100 |  | 84.7 |  | > 100 µM |  | > 100 |  | > 100 µM |  | > 100 µM |  |  |
| Cc1ccc2c(c1)C(c1cccc3ccccc13)OC2=O (stereo unspecified) |  | > 100 |  | > 100 |  | > 100 µM |  | > 100 |  | > 100 |  | > 100 µM |  |  |  | > 100 µM |  | 80.4 µM | > 100 |  |
| Cc1cc(=O)oc2cc(O)c(CN(C)CC(=O)O)cc12 |  | > 100 |  | > 100 |  | > 100 µM |  | > 100 |  | > 100 |  |  |  | > 100 |  |  |  | > 100 µM | > 100 |  |
| COc1ccc(C2CC(n3nnnc3-c3ccccc3)=NN2)cc1 (stereo unspecified) | 12.7 | > 100 |  |  | 1.11 | 94.8 µM | 0.617 | 13.6 | 6.38 | 54.5 | 3.05 | 12 µM | 2.88 | 53.5 | 22.4 | 66.1 µM | 21.1 | 95.6 µM | 28.2 | 0.486 |
| COc1ccc(CN2c3ccccc3CCc3ccccc32)cc1F | 1.95 | > 100 |  |  | 0.868 | > 100 µM | 0.387 | > 100 | 0.66 | > 100 | 0.285 | 0.785 µM | 0.644 | > 100 | 0.471 | > 100 µM |  |  | > 100 | 0.402 |
| O=[N+]([O-])c1nccn1COCCBr |  | > 100 |  | > 100 |  | > 100 µM |  | > 100 |  | > 100 |  | > 100 µM |  | > 100 |  | > 100 µM |  |  | > 100 |  |
| CCC(c1cccc(O)c1)C(CC)c1cccc(O)c1 (stereo unspecified) | 5.46 | 19.4 |  |  | 1.21 | 14.3 µM | 3.03 | 13.6 | 5.18 | 20.3 | 6.2 | 19 µM | 2.05 | 7.73 | 2.76 | 11.1 µM | 2.75 | 10.6 µM |  |  |
| Cc1c2cc[n+](C)cc2c(C)c2c1[nH]c1ccc(O)c(OCC(F)(F)F)c12 |  | 4.11 |  | 13 |  | 12.8 µM |  |  |  | 1.1 |  | 7.4 µM |  | 16.8 |  | 17.2 µM |  |  | 17 |  |
| OCC1OC(n2cnc3c(/C=C(/O)c4ccccc4)ncnc32)C(O)C1O (stereo unspecified) |  | > 100 |  | 24 |  | > 88.1 µM |  | > 100 |  | > 100 |  | > 100 µM |  | > 100 |  |  |  | > 100 µM | > 100 |  |
| S=c1nc(-c2cccnc2)[nH][nH]1 |  | > 100 |  | > 100 |  | > 1 µM |  | > 100 |  | > 100 |  |  |  | > 100 |  | > 100 µM |  | > 100 µM |  |  |
| O=C1NC2(CN3CCC2CC3)C(=O)N1CN(Cc1ccccc1)c1ccccc1 (stereo unspecified) |  | > 100 |  | 44.7 |  | > 100 µM |  | > 100 |  | > 100 |  | > 100 µM |  | > 100 |  | > 100 µM |  | > 100 µM |  |  |
| CCN(CCNc1ccc(C)c2sc3ccccc3c(=O)c12)CC(C)(C)O | 13.2 | 28.3 | 8.9 | > 35.7 | 21.2 | > 92.1 µM | 4.23 | 14.1 | 14.9 | 32.2 | 13.1 | 27.4 µM | 2.11 | 8.04 | 11.1 | 27 µM |  |  | > 22.2 | 2.94 |
| CCOC(=O)[C@H]1Nc2ccc(OC)cc2C2c3ccccc3CC21 (stereo partly specified) |  | > 100 |  |  |  | > 100 µM |  | > 100 |  | > 100 |  | > 100 µM |  | > 100 |  |  |  | > 100 µM | > 100 |  |
| O=C([CH-]C(=O)C(F)(F)F)c1ccccc1.O=C([CH-]C(=O)C(F)(F)F)c1ccccc1.O=C([CH-]C(=O)C(F)(F)F)c1ccccc1.O=C([CH-]C(=O)C(F)(F)F)c1ccccc1.[Eu+3].c1ccncc1 | 3.74 | 39.7 | 3.69 | 13.8 | 7.62 | > 100 µM | 3.08 | 8.11 | 6.21 | 59.7 |  |  | 4.19 | 35.3 |  |  | 2.25 | 18.8 µM | 83 | 4.66 |
| COc1cc(Br)c(C=Nc2cccc3ccc(OS(=O)(=O)c4cccc([N+](=O)[O-])c4)cc23)cc1OC |  | > 100 |  |  |  | > 100 µM |  | > 100 |  | > 100 |  | > 100 µM |  | > 100 |  | > 100 µM |  | 43.5 µM | > 100 |  |
| Cc1ccc(S(=O)(=O)N=Nc2c(O)[nH]c3c(Cl)cc(Cl)cc23)cc1 |  | > 100 |  | > 100 |  | > 100 µM |  | > 100 |  |  |  | > 100 µM |  |  |  | > 100 µM |  | > 100 µM | > 100 |  |
| CCOC(=O)CC1NC(=O)CS1 (stereo unspecified) |  | > 100 |  | > 100 |  | > 100 µM |  | > 100 |  | > 100 |  | > 100 µM |  | 60.1 |  | > 100 µM |  |  | > 100 |  |
| BrC1(Br)C2/C=C\CCCCC21 (stereo unspecified) |  | > 100 |  | > 100 |  | > 100 µM |  | > 100 |  | > 100 |  |  |  |  |  |  |  | > 100 µM | > 100 |  |
| CN[C@@H]1C[C@H]2O[C@@](C)([C@@H]1OC)n1c3ccccc3c3c4c(c5c6ccccc6n2c5c31)C(=O)N[C@@H]4O |  | 6.77 |  |  | 0.0286 |  | 0.0185 |  | 0.008 |  |  | 0.3 µM and 0.722 µM | 0.0419 |  | 0.0467 | 0.187 µM and 0.28 µM | 0.00955 | 0.0345 µM and < 0.0219 µM |  | 0.162 |
| c1cc(CNC2C3CCC(C3)C2c2c[nH]c3ccccc23)cc(CNC2C3CCC(C3)C2c2c[nH]c3ccccc23)c1 (stereo unspecified) | 14.5 | 31.5 | 1.6 | 4.21 |  | 3.24 µM and 3.34 µM |  | 4.04 |  |  |  |  |  | > 100 |  |  |  |  |  |  |
| O=C1C2Cc3ccccc3CN2C(=O)N1CCN1CCCC1 (stereo unspecified) |  | > 100 |  | > 100 |  | > 100 µM |  | > 100 |  | > 100 |  | > 100 µM |  | > 100 |  |  |  |  | > 100 |  |
| CCCCCCN(CCCCCC)CC(O)c1ccc2c3c(cccc13)CC2 (stereo unspecified) | 7.04 | 22 | 2.16 | 6.16 | 10.3 | 36.8 µM | 5.3 | 18.9 | 12 | 24.9 | 8.96 | 21.6 µM | 3.02 | 9.83 | 14.1 | 27.6 µM | 2.39 | 7.21 µM |  |  |
| COc1ccc(Cl)cc1Nc1nc(C(F)(F)F)ccc1C(=O)N/N=C/c1cc(OC)c(OC)c(OC)c1 | 2.09 | 18 | 2.21 | 5.77 | 1.32 | > 100 µM | 3.55 | 20.8 | 1.32 | 5.75 | 0.449 | > 100 µM | > 100 | > 100 | 3.04 | 15 µM |  |  | > 100 | 2.42 |
